Laboratory results as given in PubChem BioAssay AID248 (DTP/NCI, 2004).
Where “and” joins values, the source holds several entries; their conditions need not be identical. Identical values can stand only once. Toxic doses and inconclusive results are not listed. Cut-off read from the data, not from the text of the source: active = T/C of 150% or more; inactive = T/C below 125%.

Test system: L1210 leukemia ip in BDF1 mice, survival T/C
Experiment: NCI In Vivo Anticancer Drug Screen. Data for tumor model L1210 Leukemia (intraperitoneal) in B6D2F1 (BDF1) mice
Settings: endpoint: mean survival time, higher = longer survival
How it was run: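 Transplantable tumor model; survival measured in treated vs vehicle control mice. Value = treated/control.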

[1] = dose: 100.0 mg/kg/injection, schedule: Q01DX001 (ip), vehicle: saline
[2] = dose: 100.0 mg/kg/injection, schedule: Q04DX003 (ip), vehicle: saline with Tween-80
[3] = dose: 200.0 mg/kg/injection, schedule: Q04DX003 (ip), vehicle: saline with Tween-80
[4] = dose: 400.0 mg/kg/injection, schedule: Q04DX003 (ip), vehicle: saline with Tween-80
[5] = dose: 50.0 mg/kg/injection, schedule: Q04DX003 (ip), vehicle: saline with Tween-80
[6] = dose: 100.0 mg/kg/injection, schedule: Q01DX009 (ip), vehicle: saline with Tween-80
[7] = dose: 100.0 mg/kg/injection, schedule: Q04DX002 (ip), vehicle: saline with Tween-80
[8] = dose: 200.0 mg/kg/injection, schedule: Q01DX009 (ip), vehicle: saline with Tween-80
[9] = dose: 200.0 mg/kg/injection, schedule: Q04DX002 (ip), vehicle: saline with Tween-80
[10] = dose: 400.0 mg/kg/injection, schedule: Q01DX009 (ip), vehicle: saline with Tween-80
[11] = dose: 400.0 mg/kg/injection, schedule: Q04DX002 (ip), vehicle: saline with Tween-80
[12] = dose: 200.0 mg/kg/injection, schedule: Q01DX001 (ip), vehicle: saline
[13] = dose: 400.0 mg/kg/injection, schedule: Q01DX001 (ip), vehicle: saline

Measured: T/C

[Cl][Pt+2][Cl].[NH-]CC(=O)O.[NH-]CC(=O)O
inactive: dose: 9.7 mg/kg/injection, schedule: Q01DX009 (ip), vehicle: saline 86 % of control | dose: 19.4 mg/kg/injection, schedule: Q01DX001 (ip), vehicle: saline 100 % of control | dose: 19.4 mg/kg/injection, schedule: Q01DX009 (ip), vehicle: saline 89 % of control | dose: 38.8 mg/kg/injection, schedule: Q01DX001 (ip), vehicle: saline 105 % of control | dose: 38.8 mg/kg/injection, schedule: Q01DX009 (ip), vehicle: saline 95 % of control | dose: 77.5 mg/kg/injection, schedule: Q01DX001 (ip), vehicle: saline 109 % of control | dose: 77.5 mg/kg/injection, schedule: Q01DX009 (ip), vehicle: saline 100 % of control | dose: 155.0 mg/kg/injection, schedule: Q01DX001 (ip), vehicle: saline 98 % of control

O=c1[nH]c2c(cnn2-c2ccccc2)c(=O)n1O
inactive: dose: 50.0 mg/kg/injection, schedule: Q01DX001 (ip), vehicle: saline 97 % of control | [1] 100 % of control

O=C(CCCl)Nc1cccc2c1C(=O)c1c(c(O)c3ccccc3c1O)C2=O
inactive: [2] 90 % of control | [3] 92 % of control | [4] 91 % of control

CSc1ccc(NC(=O)Nc2cccc(Cl)c2C)cc1
inactive: [5] 94 % of control | [6] 96 % of control and 101 % of control | [7] 93 % of control and 104 % of control | [2] 92 % of control | [8] 100 % of control and 104 % of control | [9] 93 % of control and 97 % of control | [3] 87 % of control | [10] 104 % of control and 106 % of control | [11] 107 % of control and 88 % of control | [4] 88 % of control

COc1cc(N)ccc1C(=O)NC(CCC(=O)O)C(=O)O (stereo not given)
inactive: dose: 100.0 mg/kg/injection, schedule: Q01DX001 (ip), vehicle: Klucel (hydroxypropylcellulose) (HPC) 103 % of control | dose: 200.0 mg/kg/injection, schedule: Q01DX001 (ip), vehicle: Klucel (hydroxypropylcellulose) (HPC) 100 % of control | dose: 400.0 mg/kg/injection, schedule: Q01DX001 (ip), vehicle: Klucel (hydroxypropylcellulose) (HPC) 103 % of control

O=c1[nH]c(-c2ccccc2)c(Br)c(=O)[nH]1
inactive: [2] 97 % of control | [3] 107 % of control | [4] 100 % of control

Cc1ccc(Cl)cc1NC(=O)Nc1ccccc1O
inactive: dose: 100.0 mg/kg/injection, schedule: Q01DX001 (ip), vehicle: saline with Tween-80 95 % of control | [6] 94 % of control and 97 % of control | [7] 94 % of control and 95 % of control | [2] 106 % of control | dose: 200.0 mg/kg/injection, schedule: Q01DX001 (ip), vehicle: saline with Tween-80 95 % of control | [8] 94 % of control and 92 % of control | [9] 94 % of control and 106 % of control | [3] 103 % of control | dose: 400.0 mg/kg/injection, schedule: Q01DX001 (ip), vehicle: saline with Tween-80 93 % of control | [10] 109 % of control and 115 % of control | [11] 93 % of control and 91 % of control | [4] 94 % of control

NC(=O)c1ccccc1NC(=O)Nc1ccccc1
inactive: dose: 100.0 mg/kg/injection, schedule: Q01DX009 (ip), vehicle: Klucel (hydroxypropylcellulose) (HPC) 98 % of control | dose: 100.0 mg/kg/injection, schedule: Q04DX003 (ip), vehicle: Klucel (hydroxypropylcellulose) (HPC) 102 % of control | dose: 200.0 mg/kg/injection, schedule: Q01DX009 (ip), vehicle: Klucel (hydroxypropylcellulose) (HPC) 94 % of control | dose: 200.0 mg/kg/injection, schedule: Q04DX003 (ip), vehicle: Klucel (hydroxypropylcellulose) (HPC) 96 % of control | dose: 400.0 mg/kg/injection, schedule: Q01DX009 (ip), vehicle: Klucel (hydroxypropylcellulose) (HPC) 89 % of control | dose: 400.0 mg/kg/injection, schedule: Q04DX003 (ip), vehicle: Klucel (hydroxypropylcellulose) (HPC) 94 % of control

CCOC(=O)C1CC2(Cl)C(Cl)=C(Cl)C1(Cl)C2(Cl)Cl (stereo not given)
inactive: [1] 98 % of control | dose: 100.0 mg/kg/injection, schedule: Q04DX003 (ip), vehicle: saline 94 % of control | [12] 93 % of control | dose: 200.0 mg/kg/injection, schedule: Q04DX003 (ip), vehicle: saline 94 % of control | [13] 98 % of control | dose: 400.0 mg/kg/injection, schedule: Q04DX003 (ip), vehicle: saline 93 % of control

O=c1[nH]c(=O)n(C2CC(O)C(CO)O2)cc1Br (stereo not given)
inactive: dose: 50.0 mg/kg/injection, schedule: Q02DX Z (ip), vehicle: carboxymethylcellulose (CMC) 108 % of control | dose: 100.0 mg/kg/injection, schedule: Q02DX Z (ip), vehicle: carboxymethylcellulose (CMC) 107 % of control | dose: 150.0 mg/kg/injection, schedule: Q02DX Z (ip), vehicle: carboxymethylcellulose (CMC) 109 % of control | dose: 200.0 mg/kg/injection, schedule: Q02DX Z (ip), vehicle: carboxymethylcellulose (CMC) 113 % of control | dose: 250.0 mg/kg/injection, schedule: Q02DX Z (ip), vehicle: carboxymethylcellulose (CMC) 109 % of control | dose: 300.0 mg/kg/injection, schedule: Q02DX Z (ip), vehicle: carboxymethylcellulose (CMC) 113 % of control | dose: 400.0 mg/kg/injection, schedule: Q02DX Z (ip), vehicle: carboxymethylcellulose (CMC) 110 % of control | dose: 500.0 mg/kg/injection, schedule: Q02DX Z (ip), vehicle: carboxymethylcellulose (CMC) 114 % of control | dose: 600.0 mg/kg/injection, schedule: Q01DX009 (ip), vehicle: carboxymethylcellulose (CMC) 123 % of control | dose: 600.0 mg/kg/injection, schedule: Q02DX Z (ip), vehicle: carboxymethylcellulose (CMC) 122 % of control | dose: 800.0 mg/kg/injection, schedule: Q01DX Z (ip), vehicle: carboxymethylcellulose (CMC) 122 % of control | dose: 1000.0 mg/kg/injection, schedule: Q01DX Z (ip), vehicle: carboxymethylcellulose (CMC) 113 % of control | dose: 1800.0 mg/kg/injection, schedule: Q01DX009 (ip), vehicle: carboxymethylcellulose (CMC) 102 % of control

C=CCP(c1ccccc1)c1ccccc1
inactive: dose: 100.0 mg/kg/injection, schedule: Q04DX002 (ip), vehicle: saline 98 % of control | dose: 200.0 mg/kg/injection, schedule: Q04DX002 (ip), vehicle: saline 91 % of control

O=S(=O)(c1ccccc1)C(Br)Br
inactive: [5] 101 % of control | [2] 103 % of control | [3] 101 % of control

C=C1CC2CC(C)CCC2OC1=O (stereo not given)
inactive: [1] 102 % of control | [12] 98 % of control | [13] 98 % of control

Cc1cc(C)c(OC2=C(c3c(C)cc(C)cc3C)C(=O)c3ccccc32)c(C)c1
inactive: dose: 100.0 mg/kg/injection, schedule: Q01DX001 (ip), vehicle: carboxymethylcellulose (CMC) 91 % of control | dose: 200.0 mg/kg/injection, schedule: Q01DX001 (ip), vehicle: carboxymethylcellulose (CMC) 89 % of control | dose: 400.0 mg/kg/injection, schedule: Q01DX001 (ip), vehicle: carboxymethylcellulose (CMC) 96 % of control

CCOC(=O)c1cc(=O)[nH]c2ccc(OC)cc12
inactive: [2] 98 % of control | [3] 102 % of control | [4] 91 % of control

O=S(=O)(O)O.[N-]=C(N)/N=C(\[NH-])N.[N-]=C(N)/N=C(\[NH-])N.[N-]=C(N)NC(=[N-])N.[Rh+3]
inactive: dose: 12.5 mg/kg/injection, schedule: Q04DX003 (ip), vehicle: saline 91 % of control | dose: 25.0 mg/kg/injection, schedule: Q01DX009 (ip), vehicle: saline 118 % of control | dose: 25.0 mg/kg/injection, schedule: Q04DX003 (ip), vehicle: saline 109 % of control | dose: 50.0 mg/kg/injection, schedule: Q01DX009 (ip), vehicle: saline 98 % of control | dose: 50.0 mg/kg/injection, schedule: Q04DX003 (ip), vehicle: saline 96 % of control
